The target in one assay is Aspartyl aminopeptidase (Plasmodium falciparum 3D7, UniProt Q8I2J3).
The next assay addresses Procathepsin L (Homo sapiens, UniProt P07711).
Assay [1] in a line: Trypanosoma cruzi growth suppression in host cells – NIH3T3 host cells, beta-gal luminescence, confirmation (AID 2044).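 Also: intracellular parasites grown in NIH/3T3 mouse fibroblasts as host cells; luminescent beta-galactosidase reporter signal from transgenic T. cruzi replicating inside host cells; inhibitors lower the luminescence signal.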 The assay is classed as functional, cell-based.
Assay [2] can be described thus: NIH3T3 cell viability loss – ATP luminescence, mouse fibroblasts, counter-screen, dose response (AID 2010).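 Also: cells exposed to compound for about 90 hours before reading.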 The assay is classed as functional, cell-based. (In general: Counterscreens check selectivity or assay interference.)
In a further assay the target is Nonstructural protein 1 (Influenza A virus, UniProt Q194T2). The class given is functional, Influenza A virus (A/California/07/2009(H1N1)).
Assay [3] relates to Vero. Nature of the assay: cells. The assay is classed as functional. Conditions: Chlorocebus sabaeus.
Assay [4] has as its system Vero. Nature of the assay: mammalian cell viability reduction – secondary assay, cytotoxicity control for West Nile virus antiviral project, dose response (AID 1650). The class given is functional. The note with it: Chlorocebus sabaeus.
For assay [5], the target named is T1, Polyadenylate-binding protein 1 (Homo sapiens, UniProt P11940). Nature of the assay: MLLE domain peptide-binding blockers, IC50 – biochemical, fluorescence polarization, FITC-PAM2 peptide, dose response (AID 602259). Conditions: read-out: IC50_Mean. The class given is functional. For orientation: Polarisation of emitted light reports the rotation of a fluorescent probe.

Assay [6] deals with T1, Polyadenylate-binding protein 1. Nature of the assay: MLLE binding blockers, Cy5 peptide tracer – biochemical, fluorescence polarization, Cy5-PAM2 peptide, secondary, miRNA deadenylation inhibitor project, dose response (AID 602260). The class given is functional. Conditions: read-out: IC50_Mean.
Assay [7] is described as follows: viability loss in HepG2 hepatoma cells – cell-based, ATP luminescence, cherry-pick, activator set 2, cytotoxicity control, dose response (AID 1053143). The class given is functional.
The target in assay [8] is T2, E3 ubiquitin-protein ligase XIAP (Homo sapiens, UniProt P98170). Kind of assay: Counter Screen using XIAP-Bir3 for Chemical Antagonists of Bir1/2 domains of IAP-family anti-apoptotic proteins. [Related pubchem assays (depositor defined):AID1018, AID1449, AID1514, AID1638, AID1749, AID1750, AID488957, AID488963].
For assay [9], the target named is T2, E3 ubiquitin-protein ligase XIAP. Kind of assay: small molecules displacing peptide from XIAP – biochemical, IAP family, fluorescence polarization (AID 1018). The class given is functional.
Assay [10] addresses Lysosomal acid glucosylceramidase (Homo sapiens, UniProt P04062). Nature of the assay: Dose response cell-based high throughput screening assay to identify enhancers of beta-glucosidase activity. [Related pubchem assays: 784 ]. The class given is functional.
The next assay deals with Prothrombin (Homo sapiens, UniProt P00734). Kind of assay: Thrombin 1536 HTS Dose Response Confirmation. [Related pubchem assays: 1046 (Thrombin 1536 HTS; hits were confirmed in this assay)]. The class given is functional.

We go through 9 compounds from ChEMBL document CHEMBL1201862, “PubChem BioAssay data set” (2004).

Active and inactive are the calls of the source.

Chain of Aspartyl aminopeptidase (Q8I2J3 whole entry): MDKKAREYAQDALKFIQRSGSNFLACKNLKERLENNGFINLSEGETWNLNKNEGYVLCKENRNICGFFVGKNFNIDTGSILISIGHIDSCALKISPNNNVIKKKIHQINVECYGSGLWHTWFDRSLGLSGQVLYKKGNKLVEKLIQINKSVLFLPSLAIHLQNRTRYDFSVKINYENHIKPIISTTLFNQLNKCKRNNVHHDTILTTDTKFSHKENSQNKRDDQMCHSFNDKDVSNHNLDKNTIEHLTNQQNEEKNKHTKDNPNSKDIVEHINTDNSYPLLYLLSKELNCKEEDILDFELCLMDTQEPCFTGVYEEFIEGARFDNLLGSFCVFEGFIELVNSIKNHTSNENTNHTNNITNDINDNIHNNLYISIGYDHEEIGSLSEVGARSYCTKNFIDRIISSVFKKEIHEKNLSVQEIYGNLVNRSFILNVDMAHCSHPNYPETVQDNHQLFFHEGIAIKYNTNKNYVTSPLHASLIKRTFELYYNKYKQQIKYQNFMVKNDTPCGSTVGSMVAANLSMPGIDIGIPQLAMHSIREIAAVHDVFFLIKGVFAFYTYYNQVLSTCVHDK
T2 sequence (P98170 whole entry): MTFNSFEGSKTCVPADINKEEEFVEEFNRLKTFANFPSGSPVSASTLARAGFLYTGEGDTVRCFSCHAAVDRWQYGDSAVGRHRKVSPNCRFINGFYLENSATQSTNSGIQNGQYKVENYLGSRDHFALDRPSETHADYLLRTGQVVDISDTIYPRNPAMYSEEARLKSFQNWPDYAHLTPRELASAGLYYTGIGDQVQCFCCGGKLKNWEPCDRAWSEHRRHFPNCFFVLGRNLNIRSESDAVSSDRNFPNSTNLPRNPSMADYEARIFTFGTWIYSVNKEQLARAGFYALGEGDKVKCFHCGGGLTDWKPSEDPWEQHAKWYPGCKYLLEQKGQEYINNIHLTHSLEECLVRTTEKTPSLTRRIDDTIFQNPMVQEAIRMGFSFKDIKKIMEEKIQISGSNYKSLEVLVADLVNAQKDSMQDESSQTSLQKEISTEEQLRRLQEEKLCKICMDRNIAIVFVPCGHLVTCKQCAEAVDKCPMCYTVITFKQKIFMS
T1 sequence (P11940 whole entry, the tested form may be a part): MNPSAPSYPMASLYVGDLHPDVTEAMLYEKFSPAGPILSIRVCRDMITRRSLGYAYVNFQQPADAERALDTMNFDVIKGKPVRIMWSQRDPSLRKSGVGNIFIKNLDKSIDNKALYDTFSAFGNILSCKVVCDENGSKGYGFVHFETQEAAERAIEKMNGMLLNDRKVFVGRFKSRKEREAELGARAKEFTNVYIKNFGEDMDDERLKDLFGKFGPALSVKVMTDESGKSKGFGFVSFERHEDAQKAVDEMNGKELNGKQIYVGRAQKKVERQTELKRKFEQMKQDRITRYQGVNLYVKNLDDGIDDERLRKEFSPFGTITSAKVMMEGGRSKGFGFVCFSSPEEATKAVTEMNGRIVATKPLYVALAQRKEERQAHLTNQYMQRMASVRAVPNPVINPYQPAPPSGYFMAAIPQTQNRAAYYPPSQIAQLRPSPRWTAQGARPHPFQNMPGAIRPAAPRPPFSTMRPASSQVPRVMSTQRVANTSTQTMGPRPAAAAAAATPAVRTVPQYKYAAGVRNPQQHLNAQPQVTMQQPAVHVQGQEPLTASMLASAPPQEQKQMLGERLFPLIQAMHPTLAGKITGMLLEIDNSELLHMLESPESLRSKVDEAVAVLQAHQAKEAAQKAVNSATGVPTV
Chain of Procathepsin L (P07711 whole entry): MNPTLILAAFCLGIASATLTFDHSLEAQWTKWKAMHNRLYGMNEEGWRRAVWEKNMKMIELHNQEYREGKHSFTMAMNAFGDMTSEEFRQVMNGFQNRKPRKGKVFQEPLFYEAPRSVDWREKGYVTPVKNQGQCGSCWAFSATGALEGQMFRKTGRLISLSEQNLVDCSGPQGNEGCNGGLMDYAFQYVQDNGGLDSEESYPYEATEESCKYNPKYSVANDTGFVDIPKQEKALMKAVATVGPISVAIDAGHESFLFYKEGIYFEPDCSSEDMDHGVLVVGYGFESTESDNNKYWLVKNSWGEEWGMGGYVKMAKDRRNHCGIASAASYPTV
Chain of Lysosomal acid glucosylceramidase (P04062 whole entry): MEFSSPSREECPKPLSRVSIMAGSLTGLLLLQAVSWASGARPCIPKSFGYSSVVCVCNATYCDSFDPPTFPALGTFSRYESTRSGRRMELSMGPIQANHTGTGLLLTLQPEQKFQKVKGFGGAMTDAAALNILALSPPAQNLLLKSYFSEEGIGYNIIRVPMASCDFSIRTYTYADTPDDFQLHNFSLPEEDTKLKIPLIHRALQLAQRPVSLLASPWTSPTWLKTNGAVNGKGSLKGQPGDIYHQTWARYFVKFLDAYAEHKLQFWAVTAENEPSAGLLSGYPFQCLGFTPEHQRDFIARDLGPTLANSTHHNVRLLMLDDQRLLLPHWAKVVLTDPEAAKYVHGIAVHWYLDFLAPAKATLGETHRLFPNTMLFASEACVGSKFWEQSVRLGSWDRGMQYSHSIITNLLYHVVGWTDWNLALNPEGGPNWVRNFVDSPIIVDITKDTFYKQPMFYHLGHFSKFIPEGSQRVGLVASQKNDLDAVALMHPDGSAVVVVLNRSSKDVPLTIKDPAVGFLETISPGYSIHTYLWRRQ
Chain of Nonstructural protein 1 (Q194T2 whole entry): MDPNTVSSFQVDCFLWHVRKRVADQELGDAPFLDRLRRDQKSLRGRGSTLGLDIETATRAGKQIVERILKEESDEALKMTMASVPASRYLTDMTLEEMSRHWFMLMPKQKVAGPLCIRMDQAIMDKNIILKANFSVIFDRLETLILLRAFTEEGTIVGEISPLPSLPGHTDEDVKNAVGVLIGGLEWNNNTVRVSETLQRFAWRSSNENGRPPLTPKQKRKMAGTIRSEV

Regarding `OC(Cn1cnnc1)c1ccccc1` (stereo unspecified), the IC50 is 0.603 µM (active) on Aspartyl aminopeptidase and > 59.6 µM (not active) at Procathepsin L.

Broadly, the EC50 is the concentration that produces a half-maximal response. In the case of `O=C(c1cc([N+](=O)[O-])cc([N+](=O)[O-])c1)N1CCCc2ccccc21`, the EC50 in assay [1] was < 0.1 µM (active); in “cells” it was 0.203 µM (active); in [2], > 60 µM (not active).

Broadly, the CC50 is the concentration giving 50% cytotoxicity. For `CCC(C)C(=O)N1c2ccccc2C(=C2SC(C(=O)OC)=C(C(=O)OC)S2)C(=S)C1(C)C` (stereo unspecified), the results for the IC50 (at Nonstructural protein 1; in assay [5]; in assay [6]) were 17.7 µM (active), > 66 µM (inactive) and > 66 µM (inactive), respectively. Moreover, the CC50 with Vero [3] is 21.6 µM (active); with Vero [4] it was > 100 µM (active).

As usually defined, the AC50 is the concentration giving half of the maximal activity seen. Regarding `COc1cc(OC)cc(-c2nc3cc(C)ccc3o2)c1`, the AC50 in [7] is 26 µM (active). Also, the figures for the IC50 in assay [8] and in assay [9] were > 100 µM (inactive) and > 100 µM (not active), respectively.

As to `Cc1ccc(C)n1-c1ccc(C(=O)NCC2CCCO2)cc1` (stereo unspecified), the EC50 in assay [10] was > 50 µM (not active).

As for `CN(CC1CCCN(CCc2cccc(C(F)(F)F)c2)C1)C(=O)c1ccco1` (stereo unspecified), the results for the EC50 (in [1]; in “cells”; in [2]) were < 0.1 µM (active), 0.587 µM (active) and > 60 µM (not active), respectively.

Turning to `Cc1c(C)c2cc3c4c(oc3c(C)c2oc1=O)CCCC4`, in [10], the EC50 was > 50 µM (not active).

Turning to `O=C(Nc1ccc(F)c(Cl)c1)Nn1cnnc1`, the IC50 at Aspartyl aminopeptidase is 1.46 µM (active); at Procathepsin L it was > 59.6 µM (not active).

With `CSc1nc(-c2ccccc2)nn1C(=O)c1ccc(C)cc1`, the IC50 at Prothrombin is 0.028 µM (active).
